Assay results as given in the NIST ThermoML archive (doi:10.1021/je050020m).

Assay: xn = mol fraction of the nth substance listed
Conditions: Liquid, Vibrating tube method

CCCCCCCCCC [decane] + O=C=O
Conditions | mass density [kg/m3]
352.78 K, 12025 kPa, x2 = 0.0551 | 697.67
352.78 K, 13009 kPa, x2 = 0.0551 | 698.59
352.78 K, 14003 kPa, x2 = 0.0551 | 699.6
352.78 K, 15017 kPa, x2 = 0.0551 | 700.5
352.78 K, 16009 kPa, x2 = 0.0551 | 701.58
352.78 K, 17043 kPa, x2 = 0.0551 | 702.49
352.78 K, 18011 kPa, x2 = 0.0551 | 703.38
352.78 K, 18999 kPa, x2 = 0.0551 | 704.26
352.78 K, 19980 kPa, x2 = 0.0551 | 705.14
352.78 K, 21012 kPa, x2 = 0.0551 | 706.06
352.78 K, 22017 kPa, x2 = 0.0551 | 706.96
352.78 K, 23034 kPa, x2 = 0.0551 | 707.84
352.78 K, 24044 kPa, x2 = 0.0551 | 708.75
352.78 K, 24991 kPa, x2 = 0.0551 | 709.57
352.79 K, 6023 kPa, x2 = 0.2369 | 695.17
352.79 K, 7016 kPa, x2 = 0.2369 | 696.39
352.79 K, 8017 kPa, x2 = 0.2369 | 697.7
352.79 K, 9014 kPa, x2 = 0.2369 | 698.95
352.79 K, 10006 kPa, x2 = 0.2369 | 700.1
352.79 K, 11019 kPa, x2 = 0.2369 | 701.32
352.79 K, 12015 kPa, x2 = 0.2369 | 702.48
352.79 K, 13014 kPa, x2 = 0.2369 | 703.71
352.79 K, 14010 kPa, x2 = 0.2369 | 704.77
352.79 K, 15002 kPa, x2 = 0.2369 | 705.93
352.79 K, 16000 kPa, x2 = 0.2369 | 707.03
352.79 K, 17020 kPa, x2 = 0.2369 | 708.08
352.79 K, 18006 kPa, x2 = 0.2369 | 709.15
352.79 K, 19014 kPa, x2 = 0.2369 | 710.21
352.79 K, 19955 kPa, x2 = 0.2369 | 711.22
352.79 K, 21069 kPa, x2 = 0.2369 | 712.3
352.79 K, 22042 kPa, x2 = 0.2369 | 713.3
352.79 K, 23032 kPa, x2 = 0.2369 | 714.28
352.79 K, 24057 kPa, x2 = 0.2369 | 715.33
352.79 K, 24999 kPa, x2 = 0.2369 | 716.29
352.8 K, 8029 kPa, x2 = 0.4536 | 702.49
352.8 K, 9011 kPa, x2 = 0.4536 | 704.17
352.8 K, 10022 kPa, x2 = 0.4536 | 705.86
352.8 K, 11012 kPa, x2 = 0.4536 | 707.47
352.8 K, 12018 kPa, x2 = 0.4536 | 709.07
352.8 K, 13013 kPa, x2 = 0.4536 | 710.62
352.8 K, 14019 kPa, x2 = 0.4536 | 712.14
352.8 K, 15017 kPa, x2 = 0.4536 | 713.63
352.8 K, 16008 kPa, x2 = 0.4536 | 715.06
352.8 K, 17028 kPa, x2 = 0.4536 | 716.51
352.8 K, 18018 kPa, x2 = 0.4536 | 717.9
352.8 K, 19024 kPa, x2 = 0.4536 | 719.28
352.8 K, 20015 kPa, x2 = 0.4536 | 720.6
352.8 K, 21003 kPa, x2 = 0.4536 | 721.91
352.8 K, 22029 kPa, x2 = 0.4536 | 723.29
352.8 K, 23006 kPa, x2 = 0.4536 | 724.51
352.8 K, 24025 kPa, x2 = 0.4536 | 725.86
352.8 K, 25013 kPa, x2 = 0.4536 | 727.09
362.63 K, 15022 kPa, x2 = 0.8114 | 681.16
362.63 K, 16023 kPa, x2 = 0.8114 | 688.18
362.63 K, 17027 kPa, x2 = 0.8114 | 694.15
362.63 K, 18027 kPa, x2 = 0.8114 | 699.67
362.63 K, 19028 kPa, x2 = 0.8114 | 704.83
362.63 K, 20026 kPa, x2 = 0.8114 | 709.67
362.63 K, 21017 kPa, x2 = 0.8114 | 714.17
362.63 K, 22023 kPa, x2 = 0.8114 | 718.48
362.63 K, 23019 kPa, x2 = 0.8114 | 722.51
362.63 K, 24030 kPa, x2 = 0.8114 | 726.42
362.63 K, 25024 kPa, x2 = 0.8114 | 730.11
362.65 K, 5978 kPa, x2 = 0.2369 | 686.43
362.65 K, 7016 kPa, x2 = 0.2369 | 687.86
362.65 K, 8020 kPa, x2 = 0.2369 | 689.21
362.65 K, 9035 kPa, x2 = 0.2369 | 690.58
362.65 K, 10044 kPa, x2 = 0.2369 | 691.88
362.65 K, 11011 kPa, x2 = 0.2369 | 693.13
362.65 K, 12005 kPa, x2 = 0.2369 | 694.38
362.65 K, 13039 kPa, x2 = 0.2369 | 695.64
362.65 K, 14013 kPa, x2 = 0.2369 | 696.82
362.65 K, 15072 kPa, x2 = 0.2369 | 698.07
362.65 K, 15510 kPa, x2 = 0.9663 | 452.61
362.65 K, 16012 kPa, x2 = 0.2369 | 699.18
362.65 K, 16012 kPa, x2 = 0.9663 | 471.04
362.65 K, 17007 kPa, x2 = 0.9663 | 504.42
362.65 K, 17009 kPa, x2 = 0.2369 | 700.33
362.65 K, 18008 kPa, x2 = 0.2369 | 701.44
362.65 K, 18010 kPa, x2 = 0.9663 | 534.34
362.65 K, 19013 kPa, x2 = 0.9663 | 561.23
362.65 K, 19020 kPa, x2 = 0.2369 | 702.57
362.65 K, 20006 kPa, x2 = 0.2369 | 703.64
362.65 K, 20015 kPa, x2 = 0.9663 | 585.01
362.65 K, 21029 kPa, x2 = 0.9663 | 606.13
362.65 K, 21068 kPa, x2 = 0.2369 | 704.82
362.65 K, 22007 kPa, x2 = 0.2369 | 705.81
362.65 K, 22007 kPa, x2 = 0.9663 | 624.31
362.65 K, 23022 kPa, x2 = 0.9663 | 641.03
362.65 K, 23055 kPa, x2 = 0.2369 | 706.93
362.65 K, 24015 kPa, x2 = 0.9663 | 655.59
362.65 K, 24030 kPa, x2 = 0.2369 | 707.95
362.65 K, 25028 kPa, x2 = 0.9663 | 669.28
362.65 K, 25056 kPa, x2 = 0.2369 | 709.02
362.66 K, 2031 kPa, x2 = 0.0551 | 678.97
362.66 K, 3029 kPa, x2 = 0.0551 | 680.17
362.66 K, 4134 kPa, x2 = 0.0551 | 681.5
362.66 K, 5034 kPa, x2 = 0.0551 | 682.58
362.66 K, 6050 kPa, x2 = 0.0551 | 683.77
362.66 K, 7045 kPa, x2 = 0.0551 | 684.91
362.66 K, 8030 kPa, x2 = 0.0551 | 686.02
362.66 K, 9020 kPa, x2 = 0.0551 | 687.12
362.66 K, 9024 kPa, x2 = 0.4536 | 693.68
362.66 K, 10012 kPa, x2 = 0.4536 | 695.47
362.66 K, 10044 kPa, x2 = 0.0551 | 688.25
362.66 K, 11025 kPa, x2 = 0.0551 | 689.34
362.66 K, 11031 kPa, x2 = 0.4536 | 697.25
362.66 K, 11987 kPa, x2 = 0.0551 | 690.35
362.66 K, 12002 kPa, x2 = 0.4536 | 698.93
362.66 K, 13025 kPa, x2 = 0.0551 | 691.46
362.66 K, 13028 kPa, x2 = 0.4536 | 700.66
362.66 K, 14008 kPa, x2 = 0.4536 | 702.25
362.66 K, 14075 kPa, x2 = 0.0551 | 692.5
362.66 K, 15024 kPa, x2 = 0.4536 | 703.87
362.66 K, 15026 kPa, x2 = 0.0551 | 693.52
362.66 K, 16000 kPa, x2 = 0.4536 | 705.42
362.66 K, 16020 kPa, x2 = 0.0551 | 694.47
362.66 K, 17003 kPa, x2 = 0.0551 | 695.45
362.66 K, 17017 kPa, x2 = 0.4536 | 706.96
362.66 K, 18002 kPa, x2 = 0.4536 | 708.44
362.66 K, 18032 kPa, x2 = 0.0551 | 696.46
362.66 K, 19030 kPa, x2 = 0.0551 | 697.38
362.66 K, 19030 kPa, x2 = 0.4536 | 709.94
362.66 K, 19998 kPa, x2 = 0.0551 | 698.32
362.66 K, 20001 kPa, x2 = 0.4536 | 711.37
362.66 K, 21029 kPa, x2 = 0.4536 | 712.8
362.66 K, 21052 kPa, x2 = 0.0551 | 699.32
362.66 K, 22014 kPa, x2 = 0.4536 | 714.18
362.66 K, 22028 kPa, x2 = 0.0551 | 700.22
362.66 K, 22996 kPa, x2 = 0.0551 | 701.1
362.66 K, 23024 kPa, x2 = 0.4536 | 715.57
362.66 K, 24006 kPa, x2 = 0.4536 | 716.91
362.66 K, 24036 kPa, x2 = 0.0551 | 702.1
362.66 K, 25008 kPa, x2 = 0.0551 | 702.93
362.66 K, 25025 kPa, x2 = 0.4536 | 718.29
